According to PubChem BioAssay AID1508610 (The Scripps Research Institute Molecular Screening Center, 2020):
Activity calls are given as the source filed them. The rule behind the calls is not given here.

molecular target: G-protein coupled receptor 151 (Homo sapiens) (UniProt Q8TDV0); experiment: GPR151 activator potency, dose response, cell-based (AID 1508610); details: cell-based GPR151 activation reporter
Sequence (Q8TDV0 whole entry, looked up): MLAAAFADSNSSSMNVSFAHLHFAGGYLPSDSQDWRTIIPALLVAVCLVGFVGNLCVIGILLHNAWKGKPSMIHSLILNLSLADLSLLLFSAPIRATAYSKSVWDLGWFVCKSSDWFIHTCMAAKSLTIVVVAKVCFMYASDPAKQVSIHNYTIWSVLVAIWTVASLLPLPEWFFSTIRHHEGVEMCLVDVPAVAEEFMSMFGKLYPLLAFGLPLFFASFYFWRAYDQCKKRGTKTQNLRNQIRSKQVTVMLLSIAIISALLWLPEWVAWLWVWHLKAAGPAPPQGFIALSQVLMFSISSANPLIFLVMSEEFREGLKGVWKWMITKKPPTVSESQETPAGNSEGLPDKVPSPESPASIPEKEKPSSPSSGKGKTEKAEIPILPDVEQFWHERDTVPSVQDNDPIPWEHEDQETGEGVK

Question: For Cc1cccc(-n2ncc3c(Nc4ccc(F)cc4F)ncnc32)c1, which EC50 is on record?
Answer: > 26.9 µM (inactive)

Question: How did the EC50 turn out when CN1CCN(c2ccc(-c3ccc(C(=O)NCCOc4ccccc4)s3)cc2)CC1 was run?
Answer: > 27.7 µM (inactive)

Question: How did the EC50 turn out when CCOC(=O)c1ccccc1NC(=O)CN(c1ccc(Cl)c(Cl)c1)S(C)(=O)=O was run?
Answer: > 28 µM (inactive)

Question: How did the EC50 turn out when Cn1c(=O)[nH]c2nnc(-c3ccc(F)cc3)nc2c1=O was run?
Answer: > 28 µM (inactive)

Question: Which EC50 does the source give for CC(C)CCN1C(=O)C(C)(C)COc2cc(NC(=O)c3ccc4c(c3)OCO4)ccc21 here?
Answer: > 28 µM (inactive)

Question: Which EC50 does the source give for O=C(Nc1ncc([N+](=O)[O-])s1)c1ccc(Cl)cc1Cl here?
Answer: > 27.3 µM (inactive)

Question: With Fc1cccc(-c2cc3nc4c(c(N5CCOCC5)n3n2)CCC4)c1 as the compound, how does the EC50 read?
Answer: > 28 µM (inactive)

Question: For COC(=O)c1ccc(CN2CCN(Cc3ccc(OC)c(C)c3)C(CCO)C2)cc1 (centres undefined), which EC50 is on record?
Answer: > 28 µM (inactive)

Question: Clc1ccccc1/C=C/c1nc(-c2ccccn2)no1 was tested. Which EC50 did it give?
Answer: > 28 µM (inactive)

Question: For CCOc1ccc(NC(=O)C(=O)NCCN2CCN(S(=O)(=O)c3ccc4ccccc4c3)CC2)cc1, which EC50 is on record?
Answer: > 18.8 µM (inactive)

Question: With O=C(O)c1ccc(-n2cc(-c3ccc(Cl)cc3)cn2)cc1 as the compound, how does the EC50 read?
Answer: > 28 µM (inactive)

Question: Which EC50 does the source give for COc1ccc(CCNc2ncnc3c2oc2ccccc23)cc1OC here?
Answer: > 27.6 µM (inactive)

Question: Which EC50 does the source give for CSc1nc(-c2ccccc2)cn1-c1ccc(F)cc1 here?
Answer: > 35.5 µM (inactive)

Question: With CCCOc1ccc(NC(=O)CC2C(=O)N(c3ccc(Cl)cc3)C(=S)N2Cc2ccncc2)cc1 (centres undefined) as the compound, how does the EC50 read?
Answer: > 23.5 µM (inactive)

Question: With CCOC(=O)c1ccc(NC(=O)CSc2cn(Cc3ccccc3Cl)c3ccccc23)cc1 as the compound, how does the EC50 read?
Answer: > 24.2 µM (inactive)

Question: Which EC50 does the source give for COc1ccc(NS(=O)(=O)c2cccc3c(S(=O)(=O)Nc4ccc(OC)cc4OC)cccc23)c(OC)c1 here?
Answer: > 20.8 µM (inactive)

Question: How did the EC50 turn out when O=C1CC(c2ccc(O)cc2)Oc2ccccc21 (centres undefined) was run?
Answer: > 28 µM (inactive)

Question: Which EC50 does the source give for C=CCN1C(=O)CS/C1=N\NC(=O)c1ccccc1 here?
Answer: > 28.5 µM (inactive)

Question: How did the EC50 turn out when Cn1c(=O)c2c(nc(NCCO)n2Cc2ccccc2F)n(C)c1=O was run?
Answer: > 34.4 µM (inactive)

Question: Which EC50 does the source give for CC1CCCCN1Cc1nc2c(c(=O)n(C)c(=O)n2C)n1CC(N)=O (centres undefined) here?
Answer: > 28 µM (inactive)

Question: O=[N+]([O-])c1ccc(/C=C/c2ccc(O)cc2)cc1 was tested. Which EC50 did it give?
Answer: > 28.9 µM (inactive)

Question: S=c1nc2c(n[nH]1)c1ccccc1n2CCc1ccccc1 was tested. Which EC50 did it give?
Answer: > 33 µM (inactive)

Question: How did the EC50 turn out when NC(=O)/C(=C\c1ccco1)NC(=O)c1ccccc1Br was run?
Answer: > 28 µM (inactive)

Question: With CCN1/C(=C/c2ccc3cc(C)ccc3[n+]2CC)Sc2ccc(-c3ccccc3)cc21 as the compound, how does the EC50 read?
Answer: inactive

Question: How did the EC50 turn out when COc1ccc(OCc2cc(C(=O)N(C)Cc3ccncn3)no2)c(Cl)c1 was run?
Answer: > 28 µM (inactive)

Question: For CC(C)N(CCNc1nc(N2CCC(N3CCOCC3)CC2)nc2c1ncn2C1CCCCC1)C(C)C, which EC50 is on record?
Answer: > 29.5 µM (inactive)

Question: COC(=O)CN1C(=O)S/C(=C\c2cc(Br)c(OC)c(OC)c2)C1=O was tested. Which EC50 did it give?
Answer: > 28 µM (inactive)

Question: How did the EC50 turn out when C=CCn1c(C)cc(C2=NNC(=NCC)SC2)c1C was run?
Answer: > 28.7 µM (inactive)

Question: How did the EC50 turn out when Nc1nc2n(n1)C(c1ccccc1Cl)CC(c1ccc(F)cc1)N2 (centres undefined) was run?
Answer: > 28 µM (inactive)

Question: For CCOC(=O)N1CCc2nc(NC(=O)c3ccnn3CC)sc2C1, which EC50 is on record?
Answer: > 28 µM (inactive)

Question: With Cc1cc(Br)ccc1Nc1nc(-c2ccccc2F)nc2ccccc12 as the compound, how does the EC50 read?
Answer: > 23.5 µM (inactive)

Question: CC(C)(C)NS(=O)(=O)c1ccc(NC(=O)COc2ccc(Br)cc2)cc1 was tested. Which EC50 did it give?
Answer: > 28 µM (inactive)

Question: CCOC(=O)N1CCN(C(=S)Nc2ccc(C)cc2)CC1 was tested. Which EC50 did it give?
Answer: > 28 µM (inactive)

Question: For COc1cc(OC)cc(C(=O)NC2CCCCCCC2)c1, which EC50 is on record?
Answer: > 39.8 µM (inactive)

Question: COc1ccc(C(=O)Nc2cc(C(=O)NCc3ccc(F)cc3)ccc2N2CC3CC(C2)c2cccc(=O)n2C3)cc1 (centres undefined) was tested. Which EC50 did it give?
Answer: > 16.9 µM (inactive)

Question: Which EC50 does the source give for CCC(C)NC(=O)c1cc(=O)[nH]c2ccc(Br)cc12 (centres undefined) here?
Answer: 0.867 µM

Question: Which EC50 does the source give for Cc1ccc(-c2nnc3sc(NC(=O)CC(C)C)nn23)cc1 here?
Answer: > 28 µM (inactive)

Question: Which EC50 does the source give for CCOc1ccc(C(=O)N2CCC(c3ncncc3-c3ccncc3)CC2)o1 here?
Answer: > 28 µM (inactive)

Question: With COc1ccc(-c2nc(Nc3ccc(C)c(Cl)c3)c3ccccc3n2)cc1OC as the compound, how does the EC50 read?
Answer: > 26.1 µM (inactive)
